Assay results: article PMC6545112 (Journal of medicinal chemistry, 2018)
Entries after “also recorded” stand apart in the source; their conditions may differ. Read-outs that look alike come from different tables or passages of the source.

What was measured:
RS4;11 xenograft tumors = test: antitumor activity in the RS4; format: in vivo, mice
[1] = system: leukemia cell lines with mutated p53; test: cell growth inhibition, leukemia cell lines with mutated p53; format: cell-based, human; conditions: read-out: IC50 in leukemia cell lines with mutated p53
[2] = system: p53 target genes (MDM2, p21, PUMA) and TP53 in RS4;11 cells; test: qRT-PCR analysis of mRNA levels of p53 target genes and TP53 in RS4; format: cell-based, human; conditions: RS4;11, 6 h
[3] = first efficacy experiment
RS4;11 cell line = test: cell growth inhibition, WST-8 assay, RS4; format: cell-based, human; conditions: for IC50: 4 days, WST-8 assay
MV4;11 AML cell line = test: cell growth inhibition, MV4; format: cell-based, human
[4] = biological target: MDM2 and p53 proteins in RS4;11 cells (Homo sapiens, UniProt Q00987); test: western blotting analysis of MDM2 and p53 proteins in RS4; format: cell-based
OCL-AML-5 = test: cell growth inhibition assay, OCL-AML-5; format: cell-based, human; conditions: read-out: IC50 (nM) in cell growth inhibition assay; OCL-AML-5, AML, p53 WT
KG-1 = test: cell growth inhibition assay, KG-1; format: cell-based, human; conditions: read-out: IC50 in cell growth inhibition assay; KG-1, AML, p53 MUT
SIG-M5 = test: cell growth inhibition assay, SIG-M5; format: cell-based, human; conditions: read-out: IC50 (nM) in cell growth inhibition assay; SIG-M5, AML, p53 WT
MOLM-14 = test: cell growth inhibition assay, MOLM-14; format: cell-based, human; conditions: read-out: IC50 (nM) in cell growth inhibition assay; MOLM-14, AML, p53 WT
MOLM-13 = test: cell growth inhibition assay, MOLM-13; format: cell-based, human; conditions: read-out: IC50 (nM) in cell growth inhibition assay; MOLM-13, AML, p53 WT
[5] = system: MDM2, p53, p21 and PARP cleavage in RS4;11 xenograft tumors; test: pharmacodynamic analysis in RS4; format: in vivo, mice; conditions: single dose 25 mg/kg, IV
ML-2 = test: cell growth inhibition assay, ML-2; format: cell-based, human; conditions: read-out: IC50 (nM) in cell growth inhibition assay; ML-2, AML, p53 WT
Mono-Mac-6 = test: cell growth inhibition assay, Mono-Mac-6; format: cell-based, human; conditions: read-out: IC50 in cell growth inhibition assay; Mono-Mac-6, AML, p53 MUT
[6] = system: human acute leukemia cell lines with wild-type p53; test: cell growth inhibition, panel of acute leukemia cell lines with wild-type p53; format: cell-based
RS4;11 cells = test: flow cytometric analysis of apoptosis, Annexin V/PI double staining; format: cell-based, human; conditions: RS4;11, 24 h treatment
[7] = biological target: MDM2 and p53 proteins in MV4;11 cell line (Homo sapiens, UniProt Q00987); test: western blotting analysis of MDM2 and p53 proteins in MV4; format: cell-based; conditions: MV4;11, 2 h, compared to RS4;11
[8] = system: MDM2, p53, p21 and PARP cleavage in RS4;11 xenograft tumors; conditions: single dose, mice; cited from earlier work
[9] = read-out: IC50 (nM) in inhibition of cell growth in the RS4;11 cell line

Chain of MDM2 and p53 proteins in RS4;11 cells (Q00987 whole entry): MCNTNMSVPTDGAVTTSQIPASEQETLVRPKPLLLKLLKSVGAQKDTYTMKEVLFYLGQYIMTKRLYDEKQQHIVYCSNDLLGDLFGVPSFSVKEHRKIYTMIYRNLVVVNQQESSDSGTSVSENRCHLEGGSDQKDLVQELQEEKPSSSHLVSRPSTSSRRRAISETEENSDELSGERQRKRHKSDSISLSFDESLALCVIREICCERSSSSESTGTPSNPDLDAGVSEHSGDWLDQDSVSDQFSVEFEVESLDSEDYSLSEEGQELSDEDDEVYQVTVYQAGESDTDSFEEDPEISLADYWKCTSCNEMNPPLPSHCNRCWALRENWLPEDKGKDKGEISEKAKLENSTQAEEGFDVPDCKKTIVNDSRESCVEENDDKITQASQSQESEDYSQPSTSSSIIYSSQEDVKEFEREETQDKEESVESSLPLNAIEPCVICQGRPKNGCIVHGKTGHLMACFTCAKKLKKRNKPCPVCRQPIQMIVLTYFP
Chain of MDM2 and p53 proteins in MV4;11 cell line (Q00987 whole entry): as above

Q: With `O=C(O)c1ccc(NC(=O)[C@@H]2NC3(CCCCC3)[C@@]3(C(=O)Nc4cc(Cl)ccc43)[C@H]2c2cccc(Cl)c2F)cc1` [MI-1061, reference compound] as the compound, how does the antitumor activity (RS4;11 xenograft tumors; 100 mg/kg, oral, daily dosing (5 days a week)) read?
A: effectively retards tumor growth over the control

Q: And the IC50 ([1]; Homo sapiens)?
A: > 10 µM

Q: And the “transcriptional upregulation of p53 target genes (MDM2, p21, PUMA)” value [2]?
A: effectively induces marked transcriptional upregulation of p53 target genes

Q: And the “weight loss or other signs of toxicity” value [3]?
A: no significant weight loss or other signs of toxicity

Q: What about the “effect of pretreatment with lenalidomide on cell growth inhibitory activity” value (RS4;11 cell line; RS4;11, 4 days, WST-8) of the same compound?
A: no significant effect

Q: What about the “effect of pretreatment with lenalidomide on cell growth inhibitory activity” value (MV4;11 AML cell line) of the same compound?
A: has no effect on the activity

Q: And the “effect on MDM2 and p53 protein levels (western blotting)” value (“effect on MDM2 and p53 protein levels” below) ([4]; RS4;11 cells, 2 h treatment)?
A: inducing accumulation of both MDM2 and p53; also recorded: induces accumulation of both MDM2 and p53 proteins

Q: For “(3’R,4’S,5’R)-6”-Chloro-4’-(3-Chloro-2-fluorophenyl)-N-(4-((5-(2-(2,6-dioxopiperidin-3-yl)-1,3-dioxoisoindolin-4-yl)pent-4-yn-1-yl)carbamoyl)phenyl)-2”-oxodispiro[cyclohexane-1,2’-pyrrolidine-3’,3”-indoline]-5’-carboxamide [Compound 14]”, which IC50 (OCL-AML-5) is on record?
A: 33.1 ± 18 nM

Q: What about the IC50 (KG-1) of the same compound?
A: > 10 µM

Q: And the IC50 (SIG-M5)?
A: 19.8 ± 11 nM

Q: And the IC50 (MOLM-14)?
A: 10.5 ± 3 nM

Q: What about the antitumor activity (RS4;11 xenograft tumors; 25 mg/kg, daily, 5 days a week for 2 weeks) of the same compound?
A: complete tumor regression

Q: And the antitumor activity (RS4;11 xenograft tumors; 50 mg/kg, every other day for three weeks)?
A: complete tumor regression

Q: What about the antitumor activity (RS4;11 xenograft tumors; 50 mg/kg, weekly dosing) of the same compound?
A: complete tumor growth inhibition

Q: What about the IC50 [1] of the same compound?
A: > 10 µM

Q: And the “effect on TP53 mRNA” value [2]?
A: have no effect on TP53

Q: What about the “times more potent than MI-1061 in transcriptional upregulation of p53 target genes” value [2] of the same compound?
A: > 10 times

Q: And the IC50 (MOLM-13)?
A: 7.3 ± 3 nM

Q: What about the “PARP cleavage in tumor tissue” value [5] of the same compound?
A: evident at the 24 h time point

Q: And the “persistence of MDM2 protein depletion in tumor tissue” value ([5]; depleted at 3 h)?
A: > 24 h

Q: What about the “duration of p53 and p21 upregulation in tumor tissue” value ([5]; strong at 3 h) of the same compound?
A: > 24 h

Q: And the IC50 (ML-2)?
A: 4.4 ± 2 nM

Q: What about the IC50 (Mono-Mac-6) of the same compound?
A: > 10 µM

Q: And the “times more potent than MD-222 in inhibition of cell growth” value (RS4;11 cell line; RS4;11)?
A: 2 times

Q: What about the IC50 (RS4;11 cell line; [9]) of the same compound?
A: 1.5 ± 0.5 nM

Q: And the “times more potent than MI-1061 in cell growth inhibition” value [6]?
A: > 10 times

Q: And the “times more potent than MI-1061 in inducing apoptosis” value (RS4;11 cells)?
A: > 10 times

Q: Which results are given for `O=C1CCC(N2C(=O)c3cccc(NCCCCCCCNC(=O)c4ccc(NC(=O)[C@@H]5NC6(CCCCC6)[C@@]6(C(=O)Nc7cc(Cl)ccc76)[C@H]5c5cccc(Cl)c5F)cc4)c3C2=O)C(=O)N1` (stereo partly shown) [Compound 8, (3’R,4’S,5’R)-6”-Chloro-4’-(3-Chloro-2-fluorophenyl)-N-(4-((7-((2-(2,6-dioxopiperidin-3-yl)-1,3-dioxoisoindolin-4-yl)amino)heptyl)carbamoyl)phenyl)-2”-oxodispiro[cyclohexane-1,2’-pyrrolidine-3’,3”-indoline]-5’-carboxamide]?
A: times less potent than 1 in inhibition of cell growth (RS4;11 cell line; RS4;11): 10 times; effect on MDM2 and p53 protein levels (western blotting) ([4]; RS4;11 cells, 2 h treatment): induce degradation of MDM2 and accumulation of p53

Q: Which “times less potent than MD-224 in inhibition of cell growth” value (RS4;11 cell line; RS4;11) does the source give for “(3’R,4’S,5’R)-6”-Chloro-4’-(3-Chloro-2-fluorophenyl)-N-(4-((5-(2-(2,6-dioxopiperidin-3-yl)-3-oxoisoindolin-5-yl)pent-4-yn-1-yl)carbamoyl)phenyl)-2”-oxodispiro[cyclohexane-1,2’-pyrrolidine-3’,3”-indoline]-5’-carboxamide [Compound 17]” here?
A: 3 times

Q: What about the IC50 (RS4;11 cell line; [9]) of the same compound?
A: 5 ± 3 nM

Q: What about the “effect on MDM2 and p53 protein levels” value ([4]; RS4;11 cells, 2 h treatment) of the same compound?
A: effectively induce degradation of MDM2 and accumulation of p53

Q: For “(3’R,4’S,5’R)-6”-Chloro-4’-(3-Chloro-2-fluorophenyl)-N-(4-((5-(2-(2,6-dioxopiperidin-3-yl)-1-oxoisoindolin-4-yl)pentyl)carbamoyl)phenyl)-2”-oxodispiro[cyclohexane-1,2’-pyrrolidine-3’,3”-indoline]-5’-carboxamide [Compound 13]”, which IC50 (OCL-AML-5) is on record?
A: 58.2 ± 29 nM

Q: And the IC50 (KG-1)?
A: > 10 µM

Q: What about the “effect on MDM2 and p53 protein levels” value [7] of the same compound?
A: similarly potent and effective in inducing depletion of MDM2 protein and accumulation of p53 protein

Q: And the IC50 (SIG-M5)?
A: 29.9 ± 16 nM

Q: What about the IC50 (MOLM-14) of the same compound?
A: 22.5 ± 8 nM

Q: And the “effect on TP53 mRNA” value [2]?
A: have no effect on TP53

Q: And the “times more potent than MI-1061 in transcriptional upregulation of p53 target genes” value [2]?
A: > 10 times

Q: And the IC50 (MOLM-13)?
A: 11.7 ± 4 nM

Q: And the IC50 (ML-2)?
A: 11.5 ± 6 nM

Q: What about the IC50 (Mono-Mac-6) of the same compound?
A: > 10 µM

Q: What about the “times more potent than 1 in inhibition of cell growth” value (RS4;11 cell line; RS4;11) of the same compound?
A: 4 times

Q: And the IC50 (RS4;11 cell line; [9])?
A: 2.8 ± 1.1 nM

Q: And the “concentration that reduces/depletes MDM2 protein” value ([4]; RS4;11 / leukemia cells, 2 h treatment)?
A: ≤ 1 nM

Q: Which “duration of p53 protein upregulation in tumor tissue” value [8] does the source give for `CC(C)(C)C[C@@H]1N[C@@H](C(=O)N[C@H]2CC[C@H](O)CC2)[C@H](c2cccc(Cl)c2F)[C@]12C(=O)Nc1cc(Cl)ccc12` [MI-77301] here?
A: only a few hours

Q: What does the source list for “(3’R,4’S,5’R)-6”-Chloro-4’-(3-Chloro-2-fluorophenyl)-N-(4-(((S)-14-((2S,4R)-4-hydroxy-2-(((S)-1-(4-(4-methylthiazol-5-yl)phenyl)ethyl)carbamoyl)pyrrolidine-1-carbonyl)-15,15-dimethyl-12-oxo-3,6,9-trioxa-13-azahexadecyl)carbamoyl)phenyl)-2”-oxodispiro[cyclohexane-1,2’-pyrrolidine-3’,3”-indoline]-5’-carboxamide [Compound 20]”?
A: IC50 (RS4;11 cell line; [9]): 340 ± 20 nM; IC50 (RS4;11 cell line; read-out: IC50 in the cell growth assay in the RS4;11 cell line): 300 nM; effect on MDM2 protein level (western blotting) ([4]; RS4;11 cells, 12 h treatment): fails to reduce the level of MDM2 protein
